Target: T1, KcsA (Streptomyces lividans, UniProt P0A334)
T1 sequence (P0A334 1-160): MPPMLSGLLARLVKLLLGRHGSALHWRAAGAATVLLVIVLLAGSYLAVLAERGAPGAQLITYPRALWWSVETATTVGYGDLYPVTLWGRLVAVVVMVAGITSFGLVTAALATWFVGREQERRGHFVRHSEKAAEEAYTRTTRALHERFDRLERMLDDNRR
Experiment: Trp fluorescence quenching, purified reconstituted wild-type KcsA
Assay type: binding

CCCCCCCCC(Br)C(Br)CCCCCCCC(=O)O (stereo not shown) [BrSA, 9,10-dibromostearic acid]
Trp fluorescence quenching, purified reconstituted wild-type KcsA; binding const: 0.67 ± 0.04
